Assay results taken from patent US11286268B1, “EIF4E-inhibiting compounds and methods” (EFFECTOR THERAPEUTICS, INC., priority 2019, dated 2022).
Where two headings read alike, the source gives them in different places.

Molecular target: recombinant eIF4E (Homo sapiens (Human), UniProt P06730)
Assay: Fluorescence polarization competition assay for eIF4E binding potency
Procedure, shortened: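 IC50 values reflect 50% displacement of 20 nM EDA-m7GDP-ATTO-550 from 75 nM eIF4E, measured by fluorescence polarization after 30 min at room temperature. Buffer: 20 mM Tris pH 7.5, 100 mM NaCl, 1 mM DTT, 0.02% Tween-20; 1% DMSO.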

[1] = fluorescence polarization competition, 75 nM recombinant eIF4E, 20 nM EDA-m7GDP-ATTO-550, IC50 class, read-out: elF4E FP
[2] = inhibition of eIF4E/EDA-m7GDP-ATTO-550 binding by 50%, Table 4B calculated values, read-out: IC50

recombinant eIF4E, sequence (P06730 whole entry): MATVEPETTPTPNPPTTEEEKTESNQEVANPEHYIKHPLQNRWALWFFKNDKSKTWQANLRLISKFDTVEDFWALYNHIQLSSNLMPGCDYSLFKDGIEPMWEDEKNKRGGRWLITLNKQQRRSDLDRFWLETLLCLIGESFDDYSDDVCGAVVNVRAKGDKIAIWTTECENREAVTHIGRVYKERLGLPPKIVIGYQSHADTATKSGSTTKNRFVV

Row | SMILES | IC50 [1] [nM] | IC50 [2] [nM]
1 | Cc1cc(-c2cc(Cl)ccc2OCCn2c(C)nc3cnc(CCN(C)C)c(C#N)c3c2=O)c2scc(C(=O)O)c2n1 [compound 365] | < 50 | 19
2 | Cc1cc(-c2cc(Cl)ccc2OCCn2c(C)nc3cc(F)c(CN4CCN(C)CC4)c(C#N)c3c2=O)c2scc(C(=O)O)c2n1 [compound 366] | < 50 | 6.66
3 | Cc1cc(-c2cc(Cl)ccc2OCCn2c(C)nc3cc(F)c(C)c(C#N)c3c2=O)c2scc(C(=O)O)c2n1 [compound 368] | < 50 | 41.1
4 | Cc1cc(-c2cc(Cl)ccc2OCCn2c(C)nc3cc(CN(C)C)c(OC(C)C)c(C#N)c3c2=O)c2scc(C(=O)O)c2n1 [compound 370] | < 50 | 12.1
5 | Cc1cc(-c2cc(Cl)ccc2OCCn2c(C)nc3ccc(OC(C)C)c(C#N)c3c2=O)c2scc(C(=O)O)c2n1 [compound 371] | < 50 | 20
6 | Cc1cc(-c2cc(Cl)ccc2OCCn2c(C)nc3c(C(F)F)ncc(C#N)c3c2=O)c2scc(C(=O)O)c2n1 [compound 372] | < 50 | 7.34
7 | Cc1cc(-c2cc(Cl)ccc2OCCn2c(C)nc3cc(C(F)(F)F)c(C4=CCN(C)CC4)c(C#N)c3c2=O)c2scc(C(=O)O)c2n1 [compound 373] | < 50 | 6.43
8 | Cc1nc2cc(C(F)(F)F)c(N3CCN(C)CC3)c(C#N)c2c(=O)n1CCOc1ccc(Cl)cc1-c1cccc(C(=O)O)c1 [compound 374] | < 50 | 20.5
9 | Cc1cccc(-c2c(C(F)(F)F)cc3nc(C)n(CCOc4ccc(Cl)cc4-c4cccc(C(=O)O)c4)c(=O)c3c2C#N)n1 [compound 375] | 50 to 1000 | 58
10 | Cc1nc2cc(C(F)(F)F)c(CC3CN(CC(F)F)C3)c(C#N)c2c(=O)n1CCOc1ccc(Cl)cc1-c1ccnc2c(C(=O)O)csc12 [compound 376] | < 50 | 12.7
11 | Cc1nc2cc(C(F)(F)F)c(N3CCN(CC(F)F)CC3)c(C#N)c2c(=O)n1CCOc1ccc(Cl)cc1-c1cccc(C(=O)O)c1 [compound 377] | 50 to 1000 | 61.2
12 | CC(=O)N1CCN(c2c(C(F)(F)F)cc3nc(C)n(CCOc4ccc(Cl)cc4-c4cccc(C(=O)O)c4)c(=O)c3c2C#N)CC1 [compound 378] | < 50 | 45.1
13 | Cc1nc2cnc(C3CC3)c(C#N)c2c(=O)n1CC#Cc1ccc(Cl)cc1-c1ccnc2c(C(=O)O)csc12 [compound 384] | < 50 | 20.9
14 | Cc1nc2cc(C(F)(F)F)c(-c3ccncc3)c(C#N)c2c(=O)n1CCOc1ccc(Cl)cc1-c1cccc(C(=O)O)c1 [compound 386] | < 50 | 25.4
15 | Cc1nc2cc(C(F)(F)F)c(N3CCN(c4ccncc4)CC3)c(C#N)c2c(=O)n1CCOc1ccc(Cl)cc1-c1cccc(C(=O)O)c1 [compound 387] | 50 to 1000 | 619
16 | Cc1cc(-c2cc(Cl)ccc2OCCn2c(C)nc3cc(C(F)(F)F)c(Cc4ccccn4)nc3c2=O)c2scc(C(=O)O)c2n1 [compound 390] | < 50 | 1.75
17 | CCCCc1nc2c(=O)n(CCOc3ccc(Cl)cc3-c3cc(C)nc4c(C(=O)O)csc34)c(C)nc2cc1C(F)(F)F [compound 391] | < 50 | 3.52
18 | Cc1cc(-c2cc(Cl)ccc2OCCn2c(C)nc3cc(Cl)c(-c4cc(F)cnc4C)c(C#N)c3c2=O)c2scc(C(=O)O)c2n1 [compound 392] | < 50 | 25.1

Row | SMILES | IC50 [1] [nM] | IC50 [2] [nM]
19 | Cc1cc(-c2c(Cl)cc3nc(C)n(CCOc4ccc(Cl)cc4-c4cc(C)nc5c(C(=O)O)csc45)c(=O)c3c2C#N)ccn1 [compound 393] | < 50 | 11.8
20 | Cc1cc(-c2c(Cl)cc3nc(C)n(CCOc4ccc(Cl)cc4-c4cc(C)nc5c(C(=O)O)csc45)c(=O)c3c2C#N)cc(C)n1 [compound 396] | < 50 | 18.1
21 | Cc1cc(-c2cc(Cl)ccc2OCCn2c(C)nc3cc(C(F)(F)F)cc(C#N)c3c2=O)c2scc(C(=O)NCC(=O)O)c2n1 [compound 398] | 50 to 1000 | 149
22 | Cc1cc(-c2cc(Cl)ccc2OCCn2c(C)nc3c(C)nc(CC4CCOCC4)c(C#N)c3c2=O)c2scc(C(=O)O)c2n1 [compound 400] | < 50 | 4.68
23 | Cc1nc2cc(C(F)(F)F)cc(C#N)c2c(=O)n1CCOc1ccc(Cl)cc1-c1cccc2c(C(=O)O)csc12 [compound 402] | 50 to 1000 | 124
24 | COc1cc(C#N)c2c(=O)n(CCOc3ccc(Cl)cc3-c3ccnc4c(C(=O)O)csc34)c(C)nc2c1 [compound 405] | < 50 | 19.7
25 | Cc1nc2ccc(OC(F)(F)F)c(C#N)c2c(=O)n1CCOc1ccc(Cl)cc1-c1ccnc2c(C(=O)O)csc12 [compound 406] | < 50 | 11.4
26 | Cc1nc2c(F)cc(Cl)c(C#N)c2c(=O)n1CCOc1ccc(Cl)cc1-c1ccnc2c(C(=O)O)csc12 [compound 407] | < 50 | 33.1
27 | Cc1nc2cc(C(F)(F)F)c(CN(C)C)cc2c(=O)n1CCOc1ccc(Cl)cc1-c1ccnc2c(C(=O)O)csc12 [compound 408] | < 50 | 31.1
28 | Cc1cc(-c2cc(Cl)ccc2OCCc2c(C)n(C)c3cc(C(F)(F)F)cc(C#N)c3c2=O)c2scc(C(=O)O)c2n1 [compound 409] | < 50 | 13.3
29 | Cc1cc(-c2cc(Cl)ccc2OCCn2c(C)nc3cc(C(F)(F)F)cc(C#N)c3c2=O)cc(C(=O)O)n1 [compound 410] | 50 to 1000 | 62.6
30 | Cc1cc(-c2cc(Cl)ccc2OCCn2c(C)nc3cc(C(F)(F)F)cc(C#N)c3c2=O)cc(CC(=O)O)n1 [compound 411] | 50 to 1000 | 193
31 | CC(=O)c1cnn2c(-c3cc(Cl)ccc3OCCn3c(C)nc4cc(C(F)(F)F)cc(C#N)c4c3=O)cc(C)nc12 [compound 414] | < 50 | 20.5
32 | Cc1c(C(F)(F)F)cc2nc(C)n(CCOc3ccc(Cl)cc3-c3ccnc4c(C(=O)O)csc34)c(=O)c2c1C#N [compound 415] | < 50 | 14.3
33 | Cc1cc(-c2cc(Cl)ccc2OCCn2c(C)nc3cnc(C4CC4)c(C#N)c3c2=O)c2scc(C(=O)O)c2n1 [compound 418] | < 50 | 9.07
34 | Cc1cc(-c2cc(Cl)ccc2OCCn2c(C)nc3cnc(C)c(C#N)c3c2=O)c2scc(C(=O)O)c2n1 [compound 419] | < 50 | –
35 | Cc1cc(-c2cc(Cl)ccc2OCCn2c(C)nc3cnc(C(C)(C)C)c(C#N)c3c2=O)c2scc(C(=O)O)c2n1 [compound 420] | < 50 | 9.6

The remaining lines, values ahead:

Row | IC50 [1] [nM] | IC50 [2] [nM] | SMILES
36 | < 50 | 2.87 | Cc1cc(-c2cc(Cl)ccc2OCCn2c(C)nc3cc(F)c(CN4CCOCC4)c(C#N)c3c2=O)c2scc(C(=O)O)c2n1 [compound 367]
37 | < 50 | 1.32 | COc1c(CN(C)C)cc2nc(C)n(CCOc3ccc(Cl)cc3-c3cc(C)nc4c(C(=O)O)csc34)c(=O)c2c1C#N [compound 369]
38 | < 50 | 26.7 | Cc1nc2cc(C(F)(F)F)c(N3CCN(c4ccccn4)CC3)c(C#N)c2c(=O)n1CCOc1ccc(Cl)cc1-c1cccc(C(=O)O)c1 [compound 379]
39 | < 50 | 29.7 | Cc1nc2cc(C(F)(F)F)c(N3CCN(c4cccnc4)CC3)c(C#N)c2c(=O)n1CCOc1ccc(Cl)cc1-c1cccc(C(=O)O)c1 [compound 380]
40 | < 50 | 39.5 | Cc1cc(-c2cc(Cl)ccc2OCCn2c(C)nc3cnc(C4CC4)c(C#N)c3c2=O)c2scc(C(=O)NS(C)(=O)=O)c2n1 [compound 385]
41 | < 50 | 6.29 | Cc1nc2cc(C(F)(F)F)c(-c3cccnc3)c(C#N)c2c(=O)n1CCOc1ccc(Cl)cc1-c1cccc(C(=O)O)c1 [compound 388]
42 | < 50 | 12.3 | Cc1cc(-c2cc(Cl)ccc2OCCn2c(C)nc3cc(C(F)(F)F)c(-c4cnc(C)c(C)c4)c(C#N)c3c2=O)c2scc(C(=O)O)c2n1 [compound 389]
43 | < 50 | 21.8 | Cc1cc(-c2cc(Cl)ccc2OCCn2c(C)nc3cc(Cl)c(-c4cncc(F)c4)c(C#N)c3c2=O)c2scc(C(=O)O)c2n1 [compound 394]
44 | < 50 | 9.68 | Cc1cc(-c2cc(Cl)ccc2OCCn2c(C)nc3cc(Cl)c(-c4cccnc4C)c(C#N)c3c2=O)c2scc(C(=O)O)c2n1 [compound 395]
45 | < 50 | 10.5 | Cc1cc(-c2cc(Cl)ccc2OCCn2c(C)nc3cc(Cl)c(-c4ccc(N(C)C)nc4)c(C#N)c3c2=O)c2scc(C(=O)O)c2n1 [compound 397]
46 | 50 to 1000 | 69.9 | Cc1cc(-c2cc(Cl)ccc2OCCn2c(C)nc3cc(C(F)(F)F)c(Cc4cccnc4)c(Cl)c3c2=O)c2scc(C(=O)O)c2n1 [compound 399]
47 | < 50 | 12.6 | COc1ccc(C#N)c2c(=O)n(CCOc3ccc(Cl)cc3-c3ccnc4c(C(=O)O)csc34)c(C)nc12 [compound 403]
48 | < 50 | 10.1 | COc1ccc2nc(C)n(CCOc3ccc(Cl)cc3-c3ccnc4c(C(=O)O)csc34)c(=O)c2c1C#N [compound 404]
49 | 50 to 1000 | 70.1 | CNC(=O)c1cc(C#N)c2c(=O)n(CCOc3ccc(Cl)cc3-c3ccnc4c(C(=O)O)csc34)c(C)nc2c1 [compound 412]
50 | < 50 | 34.6 | Cc1nc2cc(C(=O)N(C)C)cc(C#N)c2c(=O)n1CCOc1ccc(Cl)cc1-c1ccnc2c(C(=O)O)csc12 [compound 413]
51 | < 50 | 23 | Cc1c(C(F)(F)F)cc(C#N)c2c(=O)n(CCOc3ccc(Cl)cc3-c3ccnc4c(C(=O)O)csc34)c(C)nc12 [compound 416]
52 | < 50 | 19.7 | Cc1cc(-c2cc(Cl)ccc2OCCn2c(C)nc3cc(C(F)(F)F)c(CN4CCN(C)CC4)c(C#N)c3c2=O)c2sc(C)c(C(=O)O)c2n1 [compound 417]
